Results on 18 compounds are retold here after patent publication EP4043466B1, “PRC2 INHIBITORS” (Mirati Therapeutics, Inc., priority 2018, dated 2019).

pIC50: −log10 of the molar value.

The target of assay [1] is purified human, His-tagged PRC2 complex (Homo sapiens, UniProt O75530+Q15910). Nature of the assay: Hot Spot HMT assay: inhibition of PRC2 enzymatic activity (transfer of tritiated methyl from SAM to core histone, filter binding). It is filed as biochemical. Conditions: Inhibition of PRC2-mediated enzymatic activity; 10 nM PRC2 complex, 0.05 mg/ml core histone H3, 1 uM 3H-SAM, 1 hr at 30°C. The gist of the method: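 Serial compound dilutions starting at 1.0 µM were pre-incubated 20 min at 30°C with 10 nM complex (His-EZH2, Flag-EED, His-SUZ12, His-AEBP2, His-RbAp48) and 0.05 mg/ml core H3. Reaction ran 1 hr at 30°C after adding 1 uM [3H]-SAM; scintillation counting followed filtration.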
Sequence of purified human, His-tagged PRC2 complex (Q15910 whole entry): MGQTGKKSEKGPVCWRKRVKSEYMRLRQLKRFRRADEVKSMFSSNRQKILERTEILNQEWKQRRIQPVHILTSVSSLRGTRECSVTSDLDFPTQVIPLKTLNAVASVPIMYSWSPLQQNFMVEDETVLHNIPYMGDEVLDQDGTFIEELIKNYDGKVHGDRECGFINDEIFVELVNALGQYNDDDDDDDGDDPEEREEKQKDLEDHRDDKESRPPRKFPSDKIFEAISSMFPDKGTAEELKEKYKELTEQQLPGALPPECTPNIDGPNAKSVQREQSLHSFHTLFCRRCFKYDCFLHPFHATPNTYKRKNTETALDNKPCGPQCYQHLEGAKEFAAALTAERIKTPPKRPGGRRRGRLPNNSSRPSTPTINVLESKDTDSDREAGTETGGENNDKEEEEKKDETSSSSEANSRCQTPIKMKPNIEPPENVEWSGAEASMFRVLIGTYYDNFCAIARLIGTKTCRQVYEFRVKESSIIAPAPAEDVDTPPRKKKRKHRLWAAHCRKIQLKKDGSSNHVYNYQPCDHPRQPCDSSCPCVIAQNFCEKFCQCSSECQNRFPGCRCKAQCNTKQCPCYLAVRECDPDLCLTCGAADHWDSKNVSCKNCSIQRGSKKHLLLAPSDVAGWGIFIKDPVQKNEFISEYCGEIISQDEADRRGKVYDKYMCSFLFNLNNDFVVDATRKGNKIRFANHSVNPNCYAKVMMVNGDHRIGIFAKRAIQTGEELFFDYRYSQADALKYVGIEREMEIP
Sequence of purified human, His-tagged PRC2 complex (O75530 whole entry): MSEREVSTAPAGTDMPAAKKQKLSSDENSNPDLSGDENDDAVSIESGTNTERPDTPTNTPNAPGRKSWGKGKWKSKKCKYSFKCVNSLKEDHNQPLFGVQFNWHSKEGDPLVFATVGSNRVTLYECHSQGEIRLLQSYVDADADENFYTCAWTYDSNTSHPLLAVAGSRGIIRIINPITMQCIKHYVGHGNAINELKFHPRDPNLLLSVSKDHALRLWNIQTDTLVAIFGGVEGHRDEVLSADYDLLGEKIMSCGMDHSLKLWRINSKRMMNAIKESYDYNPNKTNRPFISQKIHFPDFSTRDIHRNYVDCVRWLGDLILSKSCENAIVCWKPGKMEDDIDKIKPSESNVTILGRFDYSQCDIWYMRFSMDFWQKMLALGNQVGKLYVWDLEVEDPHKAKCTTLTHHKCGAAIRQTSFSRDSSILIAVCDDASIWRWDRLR
Sequence of purified human, His-tagged PRC2 complex (Q15022 whole entry partner): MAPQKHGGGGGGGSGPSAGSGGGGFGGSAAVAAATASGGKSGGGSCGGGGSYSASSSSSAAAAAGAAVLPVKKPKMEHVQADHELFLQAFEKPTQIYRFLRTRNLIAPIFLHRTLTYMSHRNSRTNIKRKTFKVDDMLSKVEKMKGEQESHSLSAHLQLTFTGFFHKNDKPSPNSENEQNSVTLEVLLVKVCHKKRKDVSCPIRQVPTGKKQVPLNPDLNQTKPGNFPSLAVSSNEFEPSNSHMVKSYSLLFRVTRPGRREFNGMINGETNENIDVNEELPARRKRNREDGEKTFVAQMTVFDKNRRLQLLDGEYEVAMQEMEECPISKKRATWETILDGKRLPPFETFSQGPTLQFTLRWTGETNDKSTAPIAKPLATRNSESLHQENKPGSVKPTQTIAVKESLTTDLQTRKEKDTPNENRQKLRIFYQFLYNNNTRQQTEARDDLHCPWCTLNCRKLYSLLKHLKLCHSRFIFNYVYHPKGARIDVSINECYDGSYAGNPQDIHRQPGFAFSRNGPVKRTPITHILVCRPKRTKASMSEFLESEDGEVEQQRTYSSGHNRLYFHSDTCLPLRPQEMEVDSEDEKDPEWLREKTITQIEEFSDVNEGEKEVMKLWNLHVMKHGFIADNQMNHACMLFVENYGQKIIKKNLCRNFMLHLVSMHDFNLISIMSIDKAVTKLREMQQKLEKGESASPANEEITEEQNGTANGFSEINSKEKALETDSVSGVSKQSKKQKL
Sequence of purified human, His-tagged PRC2 complex (Q6ZN18 whole entry partner): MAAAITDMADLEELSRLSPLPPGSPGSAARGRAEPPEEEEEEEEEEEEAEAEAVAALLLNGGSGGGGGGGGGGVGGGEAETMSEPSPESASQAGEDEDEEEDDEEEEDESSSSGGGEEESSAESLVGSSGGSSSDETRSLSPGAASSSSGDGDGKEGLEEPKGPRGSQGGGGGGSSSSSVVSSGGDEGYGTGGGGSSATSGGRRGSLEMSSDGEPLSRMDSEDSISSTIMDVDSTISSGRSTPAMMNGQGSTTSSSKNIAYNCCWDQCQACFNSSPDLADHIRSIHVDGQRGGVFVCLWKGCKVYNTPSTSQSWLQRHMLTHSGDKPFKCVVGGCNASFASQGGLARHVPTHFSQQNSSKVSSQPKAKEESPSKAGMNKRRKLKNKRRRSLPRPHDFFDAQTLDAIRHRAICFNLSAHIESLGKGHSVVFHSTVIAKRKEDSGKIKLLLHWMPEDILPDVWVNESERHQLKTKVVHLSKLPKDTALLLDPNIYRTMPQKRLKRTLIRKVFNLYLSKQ
Sequence of purified human, His-tagged PRC2 complex (Q09028 whole entry partner): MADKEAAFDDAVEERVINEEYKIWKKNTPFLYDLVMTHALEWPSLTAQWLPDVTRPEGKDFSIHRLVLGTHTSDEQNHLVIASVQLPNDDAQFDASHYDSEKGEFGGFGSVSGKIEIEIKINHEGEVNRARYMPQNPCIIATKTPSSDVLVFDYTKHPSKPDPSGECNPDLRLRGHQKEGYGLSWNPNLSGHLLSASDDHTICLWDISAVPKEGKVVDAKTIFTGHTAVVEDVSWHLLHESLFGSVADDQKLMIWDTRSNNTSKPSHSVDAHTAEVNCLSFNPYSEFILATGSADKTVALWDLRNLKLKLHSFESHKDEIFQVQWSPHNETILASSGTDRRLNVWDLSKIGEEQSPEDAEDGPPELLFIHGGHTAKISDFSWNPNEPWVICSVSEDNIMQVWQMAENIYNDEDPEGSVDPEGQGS

Assay [2] concerns PRC2-mediated histone H3 methylation. The experiment in a line: Tri-Methyl Histone H3 (Lys 27) Sandwich ELISA in Pfeiffer cells: inhibition of PRC2-mediated histone H3 methylation. It is filed as cell-based, human. Conditions: Homo sapiens; Inhibition of EZH2-mediated histone H3 trimethylation; Pfeiffer cells (EZH2 A677G), 96 hours incubation. From the text: The Pfeiffer cell line was established from a […] from a patient having metastatic diffuse large B-cell lymphoma (DLBCL). This cell line expresses a mutant form of the EZH2 enzyme (A677G) that results in enhanced EZH2 activity leading to increased methylation of histone H3 Lys27. Increased trimethylation of histone H3 Lys27 is believed to be implicated in tumorgenesis and poor clinical prognosis in lymphomas (McCabe et al., (2012) Nature 492:108-112).
Inhibition of PRC2-mediated histone H3 methylation by compounds of Formula (I) was measured by ELISA using a Tri-Methyl Histone H3 (Lys 27) Sandwich ELISA Kit (Cell Signaling Tech #7866C) in accordance with the manufacturer's instructions. Briefly, Pfeiffer cells were cultured in RPMI medium supplemented with 10% fetal bovine serum and 1% penicillin and 1% streptomycin in 96 well culture plates at 37°C to a density of 8000 cells/90µl/well and the cells were harvested. A series of 3-fold serial dilutions of each test compound of Formula (I) were prepared in RPMI medium and added to the cells at final concentrations ranging from 1µM to 0.15 nM. The plates were incubated at 37°C for 96 hours.
After incubation, the cells were pelleted by centrifugation in a pre-cooled 4°C rotor at 1, 100 rpm for 10 min and the supernatant was removed by aspiration. The cell pellet was resuspended in 55µl of Lysis Buffer (0.4M HCl) and incubated on ice with periodic shaking for 30 minutes. The lysed cells were subjected to centrifugation at 4, 200 rpm for 10 min at 4°C and the supernatant containing acid-soluble proteins was collected and the remainder discarded. The acid-soluble proteins were brought to a neutral pH by the addition of 20 µl of Neutralization Buffer (1 M Sodium phosphate, dibasic (pH 12.5), 2.5 mM DTT and 1 mM PMSF) and the neutralized lysates were analyzed by ELISA.
A 65 µl aliquot of each cell lysate was added to a well of a microwell strip, the microwells were sealed using tape and incubated either at 37°C for two hours or at 4°C overnight. After incubation, the tape was removed at the microwells were washed four times using 200 µl of 1X Wash Buffer. To each washed microwell, a 100 µl aliquot of an antitrimethyl histone H3 Lys27 Detection Antibody solution was added and the microwells were incubated at 37°C for one hour. The Detection Antibody solution was removed by aspiration and the wells were washed four times each using 200 µl of 1X Wash Buffer.
A 100 µl aliquot of an HRP-linked secondary antibody was added to each well, the wells were sealed with tape and incubated at 37°C for 30 min. The HRP-linked secondary antibody solution was removed by aspiration and the wells were washed four times using 200 µl of 1X Wash Buffer. A 100 µl aliquot of a TMB substrate was added to each well, the wells were sealed with tape and incubated at 37°C for 10 min or 25°C for 30 min. The reaction was stopped by the addition of 100 µl aliquot of a STOP solution and the plate was shaken briefly. The degree of histone H3 trimethylation was determined using a spectrophotometric readout by measuring the absorbance at 450 nm and then calculating the amount of trimethylated histone H3. A = ≤100 nM; B = >100 nM - ≤500 nM; C = >500 nM and N.D. = not determined.
In general terms: In an ELISA, binding on a coated surface is turned into a signal by an enzyme label.

Another assay has as its system Karpas 422 cells. The experiment in a line: Karpas 422 cell viability, CTG (Cell Titre Glo) assay. It is filed as cell-based, human. Conditions: Homo sapiens; Inhibition of proliferation of Karpas 422 cells (EZH2 Y641N); viability measured Day 4, Day 7 or Day 11, time point of the tabulated values not stated. In outline: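 CellTiter-Glo viability IC50s taken at Day 4, Day 7 and Day 11 of continuous compound exposure (3-fold series, 10µM top, 1.5nM lowest) in RPMI/20% FBS at 37 °C. Y641N-mutant EZH2 lymphoma line seeded at 1000 cells per well; medium and compound replaced on Day 7 for Day 11 read.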

On to `Cn1nc(C2CC2)cc1-c1cnc(NCc2c(F)ccc3c2CCO3)n2cc(C#N)nc12` [Example 144, 8-(3-cyclopropyl-1-methyl-1H-pyrazol-5-yl)-5-(((5-fluoro-2,3-dihydrobenzofuran-4-yl)methyl)amino)imidazo[1,2-c]pyrimidine-2-carbonitrile], for which the pIC50 (as a rule, −log10 of the IC50, conventionally taken in molar units) was greater than 7.00 in assay [1], 6.30 to 7.00 in assay [2] and no less than 6.60 in the assay with Karpas 422 cells.
`Cc1ncc(-c2cnc(NCc3c(F)ccc4c3CCO4)n3cc(C#N)nc23)c(C)n1` [Example 71, 8-(2,4-dimethylpyrimidin-5-yl)-5-(((5-fluoro-2,3-dihydrobenzofuran-4-yl)methyl)amino)imidazo[1,2-c]pyrimidine-2-carbonitrile]: the results for the pIC50 (in assay [1]; in assay [2]; in the assay with Karpas 422 cells) were greater than 7.00, 6.30 to 7.00 and no less than 6.60, respectively.
`Cc1ncc(-c2cnc(NCc3c(F)ccc4c3CCO4)n3cc(C#N)nc23)cn1` [Example 69, 5-(((5-fluoro-2,3-dihydrobenzofuran-4-yl)methyl)amino)-8-(2-methylpyrimidin-5-yl)imidazo[1,2-c]pyrimidine-2-carbonitrile]: the pIC50 is greater than 7.00 in assay [1], 6.30 to 7.00 in assay [2] and no less than 6.60 with Karpas 422 cells.
Consider `N#Cc1cn2c(NCc3c(F)ccc4c3CCO4)ncc(-c3ccc(C4CCN4)cc3)c2n1` (stereo not shown) [Example 226, 8-(4-(azetidin-2-yl)phenyl)-5-(((5-fluoro-2,3-dihydrobenzofuran-4-yl)methyl)amino)imidazo[1,2-c]pyrimidine-2-carbonitrile], for which the pIC50 is 6.30 to 7.00 in assay [1], 6.30 to 7.00 in assay [2] and no less than 6.60 with Karpas 422 cells.
Regarding `Cn1nncc1-c1cnc(NCc2c(F)ccc3c2CCO3)n2cc(C#N)nc12` [Example 143, 5-(((5-fluoro-2,3-dihydrobenzofuran-4-yl)methyl)amino)-8-(1-methyl-1H-1,2,3-triazol-5-yl)imidazo[1,2-c]pyrimidine-2-carbonitrile], the pIC50 in assay [1] is greater than 7.00; in assay [2], no less than 7.00.
For `CC(c1ccc(-c2cnc(NCc3c(F)ccc4c3CCO4)n3cc(C#N)nc23)cc1)N1CCCC1` (stereo not shown) [Example 90, 5-(((5-fluoro-2,3-dihydrobenzofuran-4-yl)methyl)amino)-8-(4-(1-(pyrrolidin-1-yl)ethyl)phenyl)imidazo[1,2-c]pyrimidine-2-carbonitrile] the same measures were greater than 7.00 and no less than 7.00.
For the compound `COc1cc(-c2cnc(NCc3c(F)ccc4c3CCO4)n3cc(C#N)nc23)c(F)cn1` [Example 123, 5-(((5-fluoro-2,3-dihydrobenzofuran-4-yl)methyl)amino)-8-(5-fluoro-2-methoxypyridin-4-yl)imidazo[1,2-c]pyrimidine-2-carbonitrile], the pIC50 in assay [1] was greater than 7.00; in assay [2], no less than 7.00.
Consider `Cn1nc(C(=O)N2CCOCC2)cc1-c1cnc(NCc2c(F)ccc3c2CCO3)n2cc(C#N)nc12` [Example 209, 5-(((5-fluoro-2,3-dihydrobenzofuran-4-yl)methyl)amino)-8-(1-methyl-3-(morpholine-4-carbonyl)-1H-pyrazol-5-yl)imidazo[1,2-c]pyrimidine-2-carbonitrile], for which the pIC50 was no less than 7.00 in assay [2] and no less than 6.60 in the assay on Karpas 422 cells.
For the compound `N#Cc1cn2c(NCc3c(F)ccc4c3CCO4)ncc(-c3ccc(CN4CC5CC5C4)cc3)c2n1` (stereo not shown) [Example 52, 8-(4-((3-azabicyclo[3.1.0]hexan-3-yl)methyl)phenyl)-5-(((5-fluoro-2,3-dihydrobenzofuran-4-yl)methyl)amino)imidazo[1,2-c]pyrimidine-2-carbonitrile], the pIC50 in assay [1] was greater than 7.00; in assay [2], no less than 7.00.
As to `Cc1ncccc1-c1cnc(NCc2c(F)ccc3c2CCO3)n2cc(C(=O)O)nc12` [Example 2, 5-(((5-fluoro-2,3-dihydrobenzofuran-4-yl)methyl)amino)-8-(2-methylpyridin-3-yl)imidazo[1,2-c]pyrimidine-2-carboxylic acid], the pIC50 (in assay [2]; in the assay with Karpas 422 cells) was less than 6.30 throughout.
Regarding `Cc1ccc(C#N)cc1-c1cnc(NCc2c(F)ccc3c2CCO3)n2cc(C#N)nc12` [Example 177, 8-(5-cyano-2-methylphenyl)-5-(((5-fluoro-2,3-dihydrobenzofuran-4-yl)methyl)amino)imidazo[1,2-c]pyrimidine-2-carbonitrile], the pIC50 in assay [1] and in assay [2] was 6.30 to 7.00 throughout.
With `Cn1cc(-c2cnc(NCc3c(F)ccc4c3CCO4)n3cc(C#N)nc23)c(C#N)n1` [Example 224, 8-(3-cyano-1-methyl-1H-pyrazol-4-yl)-5-(((5-fluoro-2,3-dihydrobenzofuran-4-yl)methyl)amino)imidazo[1,2-c]pyrimidine-2-carbonitrile], the pIC50 in assay [1] and in assay [2] was 6.30 to 7.00 each time.
Consider `N#Cc1cn2c(NCc3c(F)ccc4c3CCO4)ncc(-c3cnn4c3CCC4)c2n1` [Example 80, 8-(5,8-dihydro-4H-pyrrolo[1,2-b]pyrazol-3-yl)-5-(((5-fluoro-2,3-dihydrobenzofuran-4-yl)methyl)amino)imidazo[1,2-c]pyrimidine-2-carbonitrile], for which the pIC50 in assay [1] was greater than 7.00; in assay [2], 6.30 to 7.00.
As to `N#Cc1cn2c(NCc3c(F)ccc4c3CCO4)ncc(-c3ccc(CN4CC(F)(F)C4)cc3)c2n1` [Example 51, 8-(4-((3,3-difluoroazetidin-1-yl)methyl)phenyl)-5-(((5-fluoro-2,3-dihydrobenzofuran-4-yl)methyl)amino)imidazo[1,2-c]pyrimidine-2-carbonitrile], the pIC50 in assay [1] is greater than 7.00; in assay [2] it was no less than 7.00.
In the case of `CN(C)Cc1ccc(-c2cnc(NCc3c(F)ccc4c3CCO4)n3cc(C#N)nc23)cc1F` [Example 63, 8-(4-((dimethylamino)methyl)-3-fluorophenyl)-5-(((5-fluoro-2,3-dihydrobenzofuran-4-yl)methyl)amino)imidazo[1,2-c]pyrimidine-2-carbonitrile], the pIC50 is greater than 7.00 in assay [1] and no less than 7.00 in assay [2].
Take `N#Cc1cn2c(NCc3c(F)ccc4c3CCO4)ncc(-c3cccnc3CO)c2n1` [Example 148, 5-(((5-fluoro-2,3-dihydrobenzofuran-4-yl)methyl)amino)-8-(2-(hydroxymethyl)pyridin-3-yl)imidazo[1,2-c]pyrimidine-2-carbonitrile]: the pIC50 in assay [1] is greater than 7.00; in assay [2], 6.30 to 7.00.
As to `Cc1cc(-c2cnc(NCc3c(F)ccc4c3CCO4)n3cc(C(=O)O)nc23)n(C)n1` [Example 1, 8-(1,3-dimethyl-1H-pyrazol-5-yl)-5-(((5-fluoro-2,3-dihydrobenzofuran-4-yl)methyl)amino)imidazo[1,2-c]pyrimidine-2-carboxylic acid], the pIC50 (in assay [2]; in the assay on Karpas 422 cells) was less than 6.30 throughout.
`Cc1cc(C2CCCN2)ccc1-c1cnc(NCc2c(F)ccc3c2CCO3)n2cc(C#N)nc12` (single isomer, unassigned) [Example 213, 5-(((5-fluoro-2,3-dihydrobenzofuran-4-yl)methyl)amino)-8-(2-methyl-4-(pyrrolidin-2-yl)phenyl)imidazo[1,2-c]pyrimidine-2-carbonitrile]: the pIC50 was 6.30 to 7.00 in assay [2] and no less than 6.60 with Karpas 422 cells.
